Test results: US20070197562A1, “Remedies for prostatic hypertrophy” (Yokohama TLO Company, Ltd., priority 2004, published 2007)

Columns and labels:
Type in all cases: cell-based, human
[1] = tested on: PrSC cells; assay: Losartan: proliferation of PrSC cells in 10% FCS (Example 8); details: 5 days
Procedure: (§1) PrSC cells were plated out on a 12-well dish at 20,000 cells per well, and cultured for 5 days in a phenol red-free F12 culture medium containing 10% (V/V) FCS and losartan at various concentrations (0, 0.1, 1.0, and 10 μM). Then the number of cells was counted. The group with no additive was used as the control group. Each group contained four wells (n=4).

[2] = tested on: PrSC cells; assay: Losartan: proliferation of TNFα-stimulated PrSC cells (Example 9); details: 5 days
Procedure: as §1, with “25,000” for “20,000”, “medium supplemented with 0.1% (W/V) BSA” for “medium”, “TNFα (1 ng/mL) and/or” for “10% (V/V) FCS and”, “(10” for “at various concentrations (0, 0.1, 1.0, and 10”

[3] = tested on: MAPK phosphorylation in PC-3 cells; assay: MAPK phosphorylation in PC-3 cells cultured in PrSC conditioned media (Western blotting)
Procedure: Stromal cells (PrSC) were cultured in a phenol red-free F12 medium containing 0.1% (W/V) BSA, to which angiotensin II (10 μM) was added alone or in combination with losartan (“Los”; 10 μM). The culture medium was collected 24 hours after the addition, and used as a conditioned medium (“0.1% BSA-CM”).
Stromal cells (PrSC) were cultured in a phenol red-free F12 medium containing 10% (V/V) FCS, to which CV (10 μM) or losartan (10 μM) was added. The culture medium was collected 24 hours after the addition, and used as a conditioned medium (“10% FCS-CM”) with no addition of angiotensin II. 10% FCS-CM with no additive was also prepared in the same manner.
3,000,000 PrSC cells were used for each of the above 10-1 and 10-2
PC3 cells (prostate cancer cells) were cultured for 24 hours in a phenol red-free F12 medium supplemented with 0.1% (W/V) BSA. Then the medium was replaced with one of the conditioned media prepared as described above, and the cells were collected 10 minutes later. Total cellular proteins were extracted as described below. Similar protocol was done in parallel for PC-3 cells without using any conditioned medium (“Control”).
The cells were washed twice with an ice-cold phosphate buffer (PBS), and lysed in 200 μL of an ice-cold cell lysis solution (lysis buffer; 20 mM of Tris (pH8.0), 137 mM of NaCl, 10% of glycerol, 0.1% of SDS, 0.5% of Nonidet P-40 (trade name), 100 mM of sodium fluoride, […] of sodium orthovanadate, 1 mM of EGTA, 2 mM of phenylmethylsulfonyl fluoride, […] of leupeptin, and […] of aprotinin). The mixture was centrifuged. Subsequently, the supernatant was collected.
The resulting protein sample was subjected to SDS-PAGE in the routine manner, and the MAPK phosphorylation was determined by Western blotting using an anti-phospho-MAP kinase antibody or an anti-MAP kinase antibody) (both were purchased from Cell Signaling Technology (Beverly, Mass.)) as the detecting antibody.
From the obtained results, the expression levels of pMAPK and MAPK bands were determined using NIH image software. On the basis of the results, the pMAPK/MAPK ratio in each lane was calculated, and then the ratio (“pMAPK ratio”) of the obtained value of each lane to that of the lane 1 (“Control”) was calculated by taking the value of Control as 1.

[4] = tested on: MAPK phosphorylation in PrSC cells; assay: MAPK phosphorylation in PrSC cells (Western blotting)
Procedure: Stromal cells (PrSC) were cultured for 24 hours in a phenol red-free F12 medium containing 0.1% (W/V) BSA, to which angiotensin II (10 μM) or TNFα (1 ng/mL) was added each alone or in combination with either CV (10 μM) or losartan (“Los”; 10 μM) by replacing the medium. The cells were collected 10 minutes after the addition, and the total cellular proteins were extracted in the same manner as described in Example 10. Similarly, the cells cultured with no additive and the cells added with either CV or Los alone were processed in parallel. 3,000,000 PrSC cells were used for each sample.
These samples were subjected to Western blotting in the same manner as described in Example 10.

[5] = tested on: PrSC cells; assay: Telmisartan: proliferation of EGF- or TNFα-stimulated PrSC cells (Example 7); details: 5 days, P<0.01
Procedure: (§2) PrSC cells were plated out on a 12-well dish at 25,000 cells per well, and cultured for 5 days in a phenol red-free F12 culture medium supplemented with 0.1% (W/V) BSA containing EGF (10 ng/mL) or TNFα (1 ng/mL), each alone or in combination with telmisartan (50 μM). Then the number of cells was counted. The group with no additive was used as the control group. Each group contained four wells (n=4).

[6] = tested on: PrSC cells; assay: Proliferation of PrSC cells stimulated with angiotensin II, TGFβ or EGF (cell count, Examples 1-3); details: 5 days
Procedure: A Cell Line Derived from Normal Human Prostatic stromal cells, i.e., PrSC cells, was purchased from Sanko Junyaku Co. Ltd. (Normal Human Prostate Stromal Cells, catalogue number CC-2508), and maintained by subculturing them in a phenol red-free RPMI medium under conditions of 5% CO2 and 37° C.
The PrSC cells (10^4 cells) were placed in a 12-well dish, and cultured in a phenol red-free medium containing 0.1% (W/V) BSA under conditions of 5% CO2 and 37° C. for several days. Then, 1 μM or 10 μM of angiotensin II was added. To some wells, CV (10 μM; hereinafter CV was used at this concentration unless otherwise noted) was added as an AIIR blocker 4 hours before adding angiotensin II. Each group contained four wells (n=4). After culturing the cells at 5% CO2 and 37° C. for 5 days, the number of all cells in each of the wells was counted.
The effect of an AIIR blocker was examined in the same manner as Example 1, except for that 10 ng/mL of TGFβ was used in place of angiotensin II.
The effect of an AIIR blocker was examined in the same manner as Example 1, except for that 10 ng/mL of EGF was used in place of angiotensin II.

[7] = tested on: PrSC cells; assay: IL-6 secretion by PrSC cells (CLEIA); details: 24 hours
Procedure: (§3) PrSC cells prepared in the same manner as Example 1, or F-1 or FT-FB cells prepared as described above were placed in a 6-well dish at 10^5 cells per well, cultured at 5% CO2 and 37° C. for 1 day (24 hours), and stimulated by the addition of TGFβ (1 ng/mL), TNFα (1 ng/mL), EGF (2.5 or 10 ng/mL), or angiotensin II (1 μM or 10 μM) (n=3). CV was added as the AIIR blocker to some wells 4 hours before adding the reagents. The culture media were collected 24 hours after adding the reagents, and the concentrations of IL-6 were determined by the CLEIA method.

[8] = tested on: PrSC cells; assay: Olmesartan: proliferation of TNFα-stimulated PrSC cells (Example 6); details: TNFα (1 ng/mL) alone; 5 days; P<0.01
Procedure: as §2, with “20,000” for “25,000”, “containing” for “containing EGF (10 ng/mL) or”, “ng/mL)” for “ng/mL), each”, “olmesartan (1” for “telmisartan (50”

[9] = tested on: F-1 cells; assay: IL-6 secretion by primary-cultured F-1 cells (CLEIA); details: angiotensin II 1 μM and 10 μM alone; 24 hours
Procedure: The primary-cultured stromal cells (F-1 cells) derived from a patient with prostatic hypertrophy were prepared as described below.
Tissues obtained from the patient were placed in a 50 mL centrifuge tube containing 20 mL of a medium (RPMI 1640, GIBCO 11835-030) supplemented with 10% (V/V) FBS (filtron) and mg/mL penicillin/streptomycin (GIBCO 15140-122), and allowed to stand at 4° C. for 1 hour or longer. Subsequently, the tissues were placed in a 10-cm dish, and cut into pieces of about 1 mm square. Blood vessels and the like were removed. At that time, to remove excessive blood (if necessary), the tissues were washed by adding 20 mL of the medium and centrifuging the mixture for 5 minutes at 1,000 rpm, followed by aspiration of the supernatant. […]
as §3, with “CV was added as the AIIR blocker to some wells 4 hours before adding the reagents.” left out

**Q.** For `CCCCc1nc(Cl)c(CO)n1Cc1ccc(-c2ccccc2-c2nn[nH]n2)cc1` [losartan], which “cell proliferation, difference from control” value ([1]; losartan 10 μM, P<0.05) is on record?
**A.** significant difference

**Q.** And the “cell proliferation vs control” value ([1]; losartan 0.1, 1.0 and 10 μM)?
**A.** dose-dependently suppressed

**Q.** What about the “increase in the number of cells” value ([2]; TNFα (1 ng/mL)+losartan (10 μM), P<0.02) of the same compound?
**A.** significantly suppressed

**Q.** And the “cell proliferation vs control” value ([2]; losartan (10 μM) alone)?
**A.** showed no change

**Q.** What about the “MAPK phosphorylation in PC-3 cells” value ([3]; 0.1% BSA-CM from PrSC with angiotensin II (10 μM)+losartan (10 μM), lane 3 vs lane 2, 10 minutes) of the same compound?
**A.** suppressed

**Q.** And the “MAPK phosphorylation in PC-3 cells” value ([3]; 10% FCS-CM from PrSC with AIIR blocker 10 μM, no angiotensin II, lanes 5 and 6 vs lane 4, 10 minutes)?
**A.** suppressed

**Q.** What about the “MAPK phosphorylation in PrSC cells” value ([4]; AIIR blocker 10 μM added alone, lanes 8 and 9) of the same compound?
**A.** not caused

**Q.** What about the “MAPK phosphorylation in PrSC cells” value ([4]; TNFα (1 ng/mL) in combination with AIIR blocker 10 μM, lanes 6 and 7, 10 minutes) of the same compound?
**A.** suppressed

**Q.** And the “MAPK phosphorylation in PrSC cells” value ([4]; angiotensin II (10 μM) in combination with AIIR blocker 10 μM, lanes 3 and 4, 10 minutes)?
**A.** suppressed

**Q.** How did the “increase in the number of cells” value ([5]; EGF (10 ng/mL)+telmisartan (50 μM)) turn out when `CCCc1nc2c(C)cc(-c3nc4ccccc4n3C)cc2n1Cc1ccc(-c2ccccc2C(=O)O)cc1` [telmisartan, 4′-{[4-methyl-6-(1-methyl-2-benzimidazolyl)-2-propyl-1-benzimidazolyl]methyl}-2-biphenylcarboxylic acid] was run?
**A.** significantly suppressed

**Q.** And the “increase in the number of cells” value ([5]; TNFα (1 ng/mL)+telmisartan (50 μM))?
**A.** significantly suppressed

**Q.** Which “number of cells vs control” value ([6]; EGF 10 ng/mL alone) does the source give for “EGF: growth factor used to stimulate cells (NSDSECPLSHDGYCLHDGVCMYIEALDKYACNCVVGYIGERCQYRDLKWWELR; Epidermal growth factor; UniProt P01133 971-1023, looked up)” here?
**A.** significant increase

**Q.** And the “IL-6 secretion vs control” value ([7]; EGF 2.5 and 10 ng/mL alone)?
**A.** dose-dependent increase

**Q.** What about the “number of cells vs control” value ([5]; EGF (10 ng/mL) alone) of the same compound?
**A.** significantly increased

**Q.** Which “number of cells, increase vs control” value ([6]; TGFβ 10 ng/mL alone) does the source give for TGFβ here?
**A.** more than 2 fold

**Q.** And the “IL-6 secretion vs control” value ([7]; TGFβ (1 ng/mL) alone)?
**A.** significantly promoted

**Q.** TNFα was tested. Which “IL-6 secretion vs control” value ([7]; TNFα (1 ng/mL) alone) did it give?
**A.** significantly promoted

**Q.** And the “number of cells vs control” value [8]?
**A.** significantly increased

**Q.** And the “number of cells vs control” value ([5]; TNFα (1 ng/mL) alone)?
**A.** significantly increased

**Q.** And the “number of cells vs control” value ([2]; TNFα (1 ng/mL) alone, P<0.05)?
**A.** significantly increased

**Q.** What about the “MAPK phosphorylation in PrSC cells” value ([4]; TNFα (1 ng/mL) alone, lane 5) of the same compound?
**A.** strongly activated

**Q.** “angiotensin II (DRVYIHPF; Angiotensin-2; UniProt P01019 25-32, looked up) [stimulant added to cells]” was tested. Which “numbers of cells vs control” value ([6]; angiotensin II 1 μM or 10 μM alone) did it give?
**A.** concentration-dependent increase

**Q.** And the “IL-6 secretion vs control” value [9]?
**A.** significant increase in a concentration-dependent manner

**Q.** What about the “MAPK phosphorylation in PC-3 cells” value ([3]; 0.1% BSA-CM from PrSC with angiotensin II (10 μM) alone, lane 2) of the same compound?
**A.** caused

**Q.** And the “MAPK phosphorylation in PrSC cells” value ([4]; angiotensin II (10 μM) alone, lane 2)?
**A.** strongly activated
